Measured values published in patent US9169215B2, “LPAR—substituted cyanopyrazole compounds” (Hoffmann-La Roche Inc., priority 2012, dated 2015).

Experiments:
[1] = target: human recombinant LPA1 Lysophospholipid receptor (Homo sapiens, UniProt Q92633); assay: Calcium flux assay using FLIPR, LPA1 antagonist activity; assay type: cell-based; conditions: for IC50: ChemiScreen calcium-optimized stable cell line, inhibition of agonist-induced calcium flux
Method: (§1) Calcium Flux Assay Using Fluorometric Imaging Plate Reader (FLIPR)
Cell Culture Conditions: The ChemiScreen Calcium-optimized stable cell line containing the human recombinant LPA1 Lysophospholipid receptor was purchased from Chemicon International, Inc./Millipore. The cells were cultured in DMEM-high glucose supplemented with 10% fetal bovine serum, 2 mM glutamine, 100 U/mL penicillin/100 μg/mL streptomycin, 1× non-essential amino acids, 10 mM HEPES and 0.25 mg/mL Geneticin. Cells were harvested with trypsin-EDTA and counted using ViaCount reagent. The cell suspension volume was adjusted to 2.0×10^5 cells/mL with complete growth media. Aliquots of 50 μL were dispensed into 384 well black/clear tissue culture treated plates (BD) and the microplates were placed in a 37° C. incubator overnight. The following day plates were used in the assay.
Dye Loading and Assay: Loading Buffer (FLIPR Calcium-4, Molecular Devices) was prepared by dissolving the contents of one bottle into 100 mL Hank's Balanced Salt Solution containing 20 mM HEPES and 2.5 mM probenecid. Plates were loaded onto Biotek plate washer and growth media was removed and replaced with 20 μL of Hank's Balanced Salt Solution containing 20 mM HEPES and 2.5 mM probenecid, followed by 25 μL of Loading Buffer. The plates were then incubated for 30 minutes at 37° C.
During the incubation, test compounds were prepared by adding 90 μL of HBSS/20 mM HEPES/0.1% BSA buffer to 2 μL of serially diluted compounds. To prepare serial dilutions, 10 mM stocks of compounds were prepared in 100% DMSO. The compound dilution plate was set up as follows: well #1 received 29 μL of stock compound and 31 μL DMSO; wells 2-10 received 40 μL of DMSO; mixed and transferred 20 μL of solution from well #1 into well #2; continued with 1:3 serial dilutions out 10 steps; transferred 2 μL of diluted compound into duplicate wells of 384 well “assay plate” and then added the 90 μL of buffer.
(§2) After incubation, both the cell and “assay” plates were brought to the FLIPR and 20 μL of the diluted compounds were transferred to the cell plates by the FLIPR. Compound addition was monitored by FLIPR to detect any agonist activity of the compounds. Plates were then incubated for 30 minutes at RT protected from light. After the incubation, plates were returned to the FLIPR and 20 μL of 4.5× concentrated agonist was added to the cell plates. During the assay, fluorescence readings were taken simultaneously from all 384 wells of the cell plate every 1.5 seconds. Five readings were taken to establish a stable baseline, then 20 μL of sample was rapidly (30 μL/sec) and simultaneously added to each well of the cell plate. The fluorescence was continuously monitored before, during and after sample addition for a total elapsed time of 100 seconds. Responses (increase in peak fluorescence) in each well following agonist addition was determined. The initial fluorescence reading from each well, prior to ligand stimulation, was used as zero baseline value for the data from that well. The responses were expressed as % inhibition of the buffer control.

LPA3 = target: T1, LPA3 (Homo sapiens, UniProt Q9UBY5); assay: Calcium flux assay using FLIPR, LPA3 antagonist activity; assay type: cell-based
T1 sequence (Q9UBY5 1-353): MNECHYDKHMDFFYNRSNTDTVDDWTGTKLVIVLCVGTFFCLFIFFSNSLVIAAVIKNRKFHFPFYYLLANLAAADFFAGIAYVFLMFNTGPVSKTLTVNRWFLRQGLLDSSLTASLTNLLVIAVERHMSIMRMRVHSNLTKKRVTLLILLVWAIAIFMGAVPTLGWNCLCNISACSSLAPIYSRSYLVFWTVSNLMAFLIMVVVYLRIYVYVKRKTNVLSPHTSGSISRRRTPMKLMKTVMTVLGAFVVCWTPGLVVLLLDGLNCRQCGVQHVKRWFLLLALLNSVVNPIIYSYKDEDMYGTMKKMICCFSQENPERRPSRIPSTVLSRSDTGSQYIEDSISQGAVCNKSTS
Method: as §1, §2

Chain of human recombinant LPA1 Lysophospholipid receptor (Q92633 whole entry): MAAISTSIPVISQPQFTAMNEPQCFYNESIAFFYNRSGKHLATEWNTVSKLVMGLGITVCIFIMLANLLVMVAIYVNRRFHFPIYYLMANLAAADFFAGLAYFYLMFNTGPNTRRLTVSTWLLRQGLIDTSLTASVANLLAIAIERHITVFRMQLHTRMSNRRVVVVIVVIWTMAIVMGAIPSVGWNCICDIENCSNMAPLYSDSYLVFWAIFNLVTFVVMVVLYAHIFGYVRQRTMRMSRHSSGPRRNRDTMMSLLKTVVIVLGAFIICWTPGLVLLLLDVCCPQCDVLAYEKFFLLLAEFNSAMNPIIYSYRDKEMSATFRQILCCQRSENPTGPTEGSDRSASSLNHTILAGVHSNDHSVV

SMILES | inhibition at 30 µM [1] [%] | IC50 [1] [nM] | inhibition at 30 µM (LPA3) [%] | inhibition at 10 µM ([1]; @ 10 μM) [%] | inhibition at 5 µM ([1]; @ 5 μM) [%]
COc1ccc(C(=O)/C(=N\C2CCCC2)n2ncc(C#N)c2N)c(F)c1 [Example 5, (E)-5-Amino-1-(1-(cyclopentylimino)-2-(2-fluoro-4-methoxyphenyl)-2-oxoethyl)-1H-pyrazole-4-carbonitrile] | 99.8 | 74 | < 5 | – | –
COc1cc2c(cc1C(=O)/C(=N\C1CCCC1)n1ncc(C#N)c1N)CCC2 [Example 8, (E)-5-Amino-1-(1-(cyclopentylimino)-2-(6-methoxy-2,3-dihydro-1H-inden-5-yl)-2-oxoethyl)-1H-pyrazole-4-carbonitrile] | 78.4 | 825 | 19.1 | – | –
N#Cc1cnn(/C(=N/C2CCCC2)C(=O)c2ccc(Br)cc2)c1N [Example 3, (E)-5-Amino-1-(1-(cyclopentylimino)-2-(4-bromophenyl)-2-oxoethyl)-1H-pyrazole-4-carbonitrile] | 96 | 2940 | < 1 | – | –
COc1ccc(C(=O)/C(=N\C2CCCCC2)n2ncc(C#N)c2N)c(OC)c1 [Example 9, (E)-5-Amino-1-(1-(cyclohexylimino)-2-(2,4-dimethoxyphenyl)-2-oxoethyl)-1H-pyrazole-4-carbonitrile] | 84.9 | 510 | 29 | – | –
COc1cc(OC)c(C(=O)/C(=N\C2CCCC2)n2ncc(C#N)c2N)cc1OC [Example 6, (E)-5-Amino-1-(1-(cyclopentylimino)-2-(2,4,5-trimethoxyphenyl)-2-oxoethyl)-1H-pyrazole-4-carbonitrile] | – | 3360 | 7.5 | 79.2 | –
COc1cc(F)ccc1C(=O)/C(=N\C1CCCC1)n1ncc(C#N)c1N [Example 4, (E)-5-Amino-1-(1-(cyclopentylimino)-2-(4-fluoro-2-methoxyphenyl)-2-oxoethyl)-1H-pyrazole-4-carbonitrile] | 49 | – | 3 | – | –
COc1ccc(C(=O)/C(=N\C2CCCC2)n2ncc(C#N)c2N)c(OC)c1 [Example 1, (E)-5-Amino-1-(1-(cyclopentylimino)-2-(2,4-dimethoxyphenyl)-2-oxoethyl)-1H-pyrazole-4-carbonitrile] | 98 | 79.8 | 22 | – | –
COc1cc2ccccc2cc1C(=O)/C(=N\C1CCCC1)n1ncc(C#N)c1N [Example 7, (E)-5-Amino-1-(1-(cyclopentylimino)-2-(3-methoxynaphthalen-2-yl)-2-oxoethyl)-1H-pyrazole-4-carbonitrile] | 77.5 | 806 | 2 | – | –
COc1ccc(C(=O)/C(=N\C(C)C)n2ncc(C#N)c2N)c(OC)c1 [Example 10, (E)-5-Amino-1-(2-(2,4-dimethoxyphenyl)-1-(iso-propylimino)-2-oxoethyl)-1H-pyrazole-4-carbonitrile] | 88.2 | 111 | 21 | – | –
CCc1ccc(C(=O)/C(=N\C2CCCC2)n2ncc(C#N)c2N)cc1 [Example 2, (E)-5-Amino-1-(1-(cyclopentylimino)-2-(4-ethylphenyl)-2-oxoethyl)-1H-pyrazole-4-carbonitrile] | 100 | 586 | 13 | – | –
COc1cc(C(=O)/C(=N\C2CCCC2)n2ncc(C#N)c2N)cc(OC)c1OC [Example 12, (E)-5-Amino-1-(1-(cyclopentylimino)-2-(3,4,5-trimethoxyphenyl)-2-oxoethyl)-1H-pyrazole-4-carbonitrile] | – | – | 14 | – | 13
COc1cc(OCc2ccccc2)ccc1C(=O)/C(=N\C1CCCC1)n1ncc(C#N)c1N [Example 11, (E)-5-Amino-1-(2-(4-benzyloxy-2-methoxyphenyl)-1-(cyclopentylimino)-2-oxoethyl)-1H-pyrazole-4-carbonitrile] | 48 | – | 23 | – | –
